# According to patent US8435960B2, “Devices for improved wound management” (Lakewood-Amedex, Inc., priority 1998, dated 2013):
# Strand notation (5' to 3'): a small letter for the sugar, then the base; units joined by * are phosphorothioate-linked, units joined directly phosphodiester-linked; [ ] holds rarer units or linkages, { } end groups; capitals alone tell only the bases. [invdT] = inverted (3'-3') thymidine; {BuOH} = butanol end-blocking group; m = 2'-O-methyl
# Columns and labels:
# [1] = test system: Strep. mutans; test: Stationary growth assay, Strep. mutans; format: cell-based; conditions: 16 A260 units; for CFU/ml: Strep. mutans 10^7 CFU/ml start; for Inhibition (%): Strep. mutans, approx. 24 hours
# [2] = test system: Pseudomonas aeruginosa (Strain Utah 4); test: Burn wound infection model, subcutaneous (systemic) infection; format: in vivo, BALB/c female mice
# [3] = test system: Pseudomonas aeruginosa (Strain Utah 4); test: Burn wound infection model, topical infection and topical treatment; format: in vivo, BALB/c female mice; conditions: for % Survival / No. Survivors/Total: topical infection, topical treatment
# [4] = test system: S. aureus ACC # 13301; test: Limited nutrient growth study, S. aureus; format: cell-based; conditions: approx. 24 hours; for Inhibition (%): oligonucleotide pH 1.5, 32 A260 units
# [5] = test system: P. aeruginosa ACC # 10145; test: Limited nutrient growth study, P. aeruginosa; format: cell-based; conditions: approx. 24 hours; for Inhibition (%): oligonucleotide pH 1.5, 32 A260 units
# [6] = test system: S. aureus; test: Stationary growth assay, S. aureus; format: cell-based; conditions: S. aureus 10^7 CFU/ml start, 32 A260 units
# [7] = test system: Staphylococcal furuncle; test: Treatment of Staphylococcal furuncle in a human subject; format: in vivo
# [8] = test system: Pseudomonas aeruginosa; test: Topical treatment of outer ear infections in chinchillas; format: in vivo
# [9] = test system: Strep. pyogenes; test: Treatment of Strep. pyogenes skin infection on a dog; format: in vivo; conditions: cut on abdomen, Neosporin for 3 days, nucleic acid pH 1.5, two treatments separated by 12 hours
# [10] = test system: Pseudomonas aeruginosa; test: Topical Pseudomonas burn model of infection in immuno-compromised mice (Example 9); format: in vivo; conditions: topical treatment at 4 hrs. and 8 hrs. post infection, pH 1.5
# [11] = test system: Pseudomonas aeruginosa; test: Systemic Pseudomonas burn model of infection (Example 9); format: in vivo, mice
# [12] = topical treatment 1800 A/ml, individual mice # 1-3, NG = no growth
# [13] = mice, burn wound infection with 5 LD50 P. aeruginosa, summary of all studies
# [14] = pH of nucleic acid 3, 32 A260 units
# [15] = pH of nucleic acid 4, 32 A260 units
# [16] = pH of nucleic acid 5, 32 A260 units
# [17] = pH of nucleic acid 7, 32 A260 units
# [18] = after 16 hours from the initial treatment
compound,measurement,setting,value
"114.6: 2′-O-methyl substituted ribonucleotides phosphodiester linked with 5′ and 3′ inverted T end-blocking, sequence CGCCAT",CFU/ml,[1]; pH 3,0 CFU/ml
same,CFU/ml,[1]; pH 7,10^7 CFU/ml
same,Inhibition (%),[1]; pH 3,100%
same,Inhibition (%),[1]; pH 7,0%
"114.21: 2′-O-methyl substituted ribonucleotides phosphodiester linked with 5′ and 3′ inverted T end-blocking, sequence GGAACGCGCCATTGGTATATC (all 2'-O-methyl, all phosphodiester, 5' [invdT], 3' [invdT], T or U not given here)",CFU/ml,[1]; pH 3,0 CFU/ml
same,CFU/ml,[1]; pH 7,10^7 CFU/ml
same,Inhibition (%),[1]; pH 3,100%
same,Inhibition (%),[1]; pH 7,0%
"CO[C@@H]1[C@H](O)[C@@H](COP(=O)(O)O)O[C@H]1n1ccc(=O)[nH]c1=O [compound 6, 2′-O-methyl Uridine monophosphate]",# Survivors/Total Animals Tested,"[2]; mouse, in vivo",0/5
same,% Survival,"[2]; mouse, in vivo",0%
same,therapeutic activity,"[2]; mouse, in vivo",did not appear to show any therapeutic activity
HO—CH2CH2CH2CH2-ACg•CgC•CAU•Ugg-CH2CH2CH2CH2—OH [B2],# Survivors/Total Animals Tested,"[2]; mouse, in vivo",28/30
same,No. Survivors/Total Animals,"[2]; mouse, in vivo",5/5
same,survival rate,"[2]; mouse, in vivo",100%
same,survival rate (efficacy),"[2]; mouse, in vivo, iv",80%
same,survival rate (efficacy),"[2]; mouse, in vivo, sc",40%
same,% Survival,[3]; concentration 335 A/ml,40%
same,No. Survivors/Total,[3]; concentration 335 A/ml,2/5
same,% Survival,[3]; concentration 1800 A/ml,90%
same,No. Survivors/Total,[3]; concentration 1800 A/ml,9/10
same,"Microbiological quantitation of tissues, Blood",[3]; [12],devoid of any detectable CFUs
same,"Microbiological quantitation of tissues, Livers",[3]; [12],two out of three
same,"Microbiological quantitation of tissues, Spleens",[3]; [12],devoid of any detectable CFUs
HO—CH2CH2CH2CH2-ACg•CgC•CAU•Ugg-CH2CH2CH2CH2—OH [B7],# Survivors/Total Animals Tested,"[2]; mouse, in vivo",2/5
same,% Survival,"[2]; mouse, in vivo",40%
same,% Survival,[3]; concentration 1800 A/ml,40%
same,No. Survivors/Total,[3]; concentration 1800 A/ml,2/5
HO—CH2CH2CH2CH2-AUG-CH2CH2CH2CH2—OH [compound 2],# Survivors/Total Animals Tested,"[2]; mouse, in vivo",3/5
same,% Survival,"[2]; mouse, in vivo",60%
HO—CH2CH2CH2CH2-CgC•CAU—CH2CH2CH2CH2—OH [compound 7],# Survivors/Total Animals Tested,"[2]; mouse, in vivo",2/5
same,% Survival,"[2]; mouse, in vivo",40%
HO—CH2CH2CH2CH2-G-CH2CH2CH2CH2—OH [compound 3],# Survivors/Total Animals Tested,[2]; [13],3/5
same,% Survival,[2]; [13],60%
HO—CH2CH2CH2CH2-GGG-CH2CH2CH2CH2—OH [compound 5],# Survivors/Total Animals Tested,"[2]; mouse, in vivo",3/5
same,% Survival,"[2]; mouse, in vivo",60%
HO—CH2CH2CH2CH2—UUU—CH2CH2CH2CH2—OH [compound 4],# Survivors/Total Animals Tested,"[2]; mouse, in vivo",2/5
same,% Survival,"[2]; mouse, in vivo",40%
"Homopolymer, 12 A: AAAAAAAAAAAA, 2′-O-methyl substituted ribonucleotides phosphodiester linked, 3′ and 5′ butanol end-blocking ({BuOH}-mAmAmAmAmAmAmAmAmAmAmAmA-{BuOH})",Inhibition (%),[4],100%
same,Inhibition (%),[5],100%
"Homopolymer, 12 C: CCCCCCCCCCCC, 2′-O-methyl substituted ribonucleotides phosphodiester linked, 3′ and 5′ butanol end-blocking ({BuOH}-mCmCmCmCmCmCmCmCmCmCmCmC-{BuOH})",Inhibition (%),[4],100%
same,Inhibition (%),[5],100%
"Homopolymer, 12 G: GGGGGGGGGGGG, 2′-O-methyl substituted ribonucleotides phosphodiester linked, 3′ and 5′ butanol end-blocking ({BuOH}-mGmGmGmGmGmGmGmGmGmGmGmG-{BuOH})",Inhibition (%),[4],100%
same,Inhibition (%),[5],100%
"Homopolymer, 12 U: UUUUUUUUUUUU, 2′-O-methyl substituted ribonucleotides phosphodiester linked, 3′ and 5′ butanol end-blocking (2'-O-methyl; butanol end caps)",Inhibition (%),[4],100%
same,Inhibition (%),[5],100%
"SEQ ID NO: 1: 2′-O-methyl ribonucleotides, phosphodiester linkage, 5′ and 3′ inverted T end-blocked, sequence CGCCATTGG (all 2'-O-methyl, all phosphodiester, 5' [invdT], 3' [invdT], T or U not given here)",Inhibition of Growth (%),"[4]; pH of nucleic acid 2, 32 A260 units, A625",100%
same,Inhibition of Growth (%),[4]; [14],100%
same,Inhibition of Growth (%),[4]; [15],100%
same,Inhibition of Growth (%),[4]; [16],16%
same,Inhibition of Growth (%),[4]; [17],0%
same,Inhibition of Growth (%),"[5]; pH of nucleic acid 2, 32 A260 units",100%
same,Inhibition of Growth (%),[5]; [14],100%
same,Inhibition of Growth (%),[5]; [15],100%
same,Inhibition of Growth (%),[5]; [16],0%
same,Inhibition of Growth (%),[5]; [17],0%
same,CFU/ml,"[6]; pH of nucleic acid 2, approx. 24 hours",0 CFU/ml
same,CFU/ml,[6]; pH of nucleic acid 3,10^3 CFU/ml
same,CFU/ml,[6]; pH of nucleic acid 4,10^6 CFU/ml
same,CFU/ml,[6]; pH of nucleic acid 5,10^7 CFU/ml
same,CFU/ml,[6]; pH of nucleic acid 7,10^7 CFU/ml
"SEQ ID NO: 9: ACGCGCCATTAT, 2′-O-methyl substituted ribonucleotides, phosphodiester linked, end blocked with an inverted T at both the 5′ and 3′ ends (all 2'-O-methyl, all phosphodiester, 5' [invdT], 3' [invdT], T or U not given here)",furuncle size,"[7]; 1.5 cm furuncle, after 8 hours of treatment, 100 μl, 18.9 mMolar in water, pH 1.5",approximately 0.5 cm
same,size of remaining pinkish area of the furuncle,[7]; [18],< 0.5 cm
same,"swelling, pain, inflammation of furuncle",[7]; [18],"virtually no swelling, pain, or inflammation"
same,effectiveness in vehicle mixture (water/ethanol/propylene glycol) compared with water,"[8]; otoscopic examination, 2 mMolar in vehicle mixture vs 2.8 mMolar in water",slightly more effective
same,outcome of ear infections by otoscopic examination,"[8]; two daily topical applications, pH 1.5, by day 7 post infection (4 days after treatment began)",completely cured
same,outcome of Strep. pyogenes skin infection,[9],"completely cleared up the infection, swelling, inflammation, and sensitivity to touch"
same,survival of treated animals,"[10]; cyclophosphamide-treated mice, 10^9 CFU topically on burn",100%
same,systemic Pseudomonas infection in treated animals,[10],free of systemic Pseudomonas infections
same,survival of treated mice,"[11]; 10^6 or 10^7 CFU S.C. after burn, treatment I.V. (40% of dose) and S.C., 40 treated mice, pH 1.5",100%
same,"Pseudomonas bacteria in the spleen, liver, or blood",[11]; treated surviving mice sacrificed and checked for sepsis,not detected
dihydroxydibutyldiphophate 2′-O-methyl uridine [BUB],# Survivors/Total Animals Tested,"[2]; mouse, in vivo",7/8
same,% Survival,"[2]; mouse, in vivo",87.5%
